The test system of test [1] is SW480. Nature of the test: Cytotoxicity against human SW480 cells assessed as inhibition of cell proliferation measured after 48 hrs by MTT assay. The test is classed as functional, cell-based. For orientation: Tetrazolium assays rely on reduction of a dye to a coloured formazan, in cell work by metabolically active cells.
The test system of test [2] is HCT-116. Put plainly: Cytotoxicity against human HCT-116 cells assessed as inhibition of cell proliferation measured after 48 hrs by MTT assay. The conditions noted are these: HCT-116, 48 h. It is filed as functional, cell-based.
In a further test the test system is RKO. Put plainly: Cytotoxicity against human RKO cells assessed as inhibition of cell proliferation measured after 48 hrs by MTT assay. It is filed as functional, cell-based.
Test [3] relates to HCT-116. Put plainly: Antiproliferative activity against human HCT-116 cells assessed as inhibition of cell growth. The test is classed as functional, cell-based.
Test [4] deals with SW-620. Nature of the test: Antiproliferative activity against human SW620 cells assessed as inhibition of cell growth. It is filed as functional, cell-based.
Test [5] concerns HCT-116. Put plainly: Antiproliferative activity against human HCT-116 cells. It is filed as functional, cell-based.
Test [6] deals with HCT-116. Put plainly: Antiproliferative activity against human HCT-116 cells expressing wild type p53 measured after 48 hrs by MTT assay. The test is classed as functional, cell-based. The conditions noted are these: HCT-116, 48 h.
Test [7] relates to HCT-116. Put plainly: Antiproliferative activity against human HCT-116 cells measured after 48 hrs by MTT assay. It is filed as functional, cell-based. The conditions noted are these: HCT-116, 48 h.
Test [8] relates to LoVo. Nature of the test: Antiproliferative activity against human LoVo cells measured after 48 hrs by MTT assay. It is filed as functional, cell-based.
The subject of another test is HCT-8. Nature of the test: Antiproliferative activity against human HCT-8 cells measured after 48 hrs by MTT assay. It is filed as functional, cell-based. The conditions noted are these: HCT-8, 48 h.
The test system of another test is DLD-1. Nature of the test: Antiproliferative activity against human DLD-1 cells assessed as inhibition of cell viability by CCK-8 method. It is filed as functional, cell-based.
In test [9] the test system is HCT-116. Put plainly: Antiproliferative activity against human HCT-116 cells assessed as inhibition of cell viability by CCK-8 method. It is filed as functional, cell-based.
Test [10] has as its system HT-29. Nature of the test: Antiproliferative activity against human HT-29 cells assessed as inhibition of cell viability incubated for 24 hrs by CCK-8 method. It is filed as functional, cell-based. Conditions: HT-29, 24 h.
Test [11] has as its system SW480. Put plainly: Antiproliferative activity against human SW480 cells assessed as inhibition of cell growth incubated for 24 hrs by CCK-8 method. Conditions: SW480, 24 h. The test is classed as functional, cell-based.
In test [12] the test system is SW480. Nature of the test: Antiproliferative activity against human SW480 cells incubated for 24 hrs by CCK-8 method. The test is classed as functional, cell-based.
A further test deals with SW 1116. Put plainly: Antiproliferative activity against human SW 1116 cells incubated for 24 hrs by CCK-8 method. It is filed as functional, cell-based.
In test [13] the test system is HT-29. Put plainly: Cytotoxicity against human HT-29 cells. It is filed as functional, cell-based.
The test system of the next test is KM12. Put plainly: Cytotoxicity against human KM12 cells. The test is classed as functional, cell-based.
Another test relates to COLO 205. Nature of the test: Cytotoxicity against human COLO 205 cells. The test is classed as functional, cell-based.
The subject of test [14] is LoVo. Nature of the test: Antiproliferative activity in human LoVo cells incubated for 72 hrs by MTT assay. It is filed as functional, cell-based.
The subject of test [15] is HCT-116. Put plainly: Antiproliferative activity against human HCT-116 cells assessed as inhibition of cell viability. The test is classed as functional, cell-based.
A further test deals with CT26. Nature of the test: Antiproliferative activity against mouse CT26 cells assessed as inhibition of cell viability. The test is classed as functional, cell-based.
Test [16] deals with SW-620. Put plainly: Antiproliferative activity against human SW620 cells measured upto 60 hrs by MTS assay. It is filed as functional.
Test [17] relates to HCT-116. Nature of the test: Antiproliferative activity against human HCT-116 cells incubated for 24 hrs by MTT assay. The test is classed as functional.
In test [18] the test system is SW480. Put plainly: Antiproliferative activity against human SW480 cells assessed as inhibition of cell growth measured after 24 hrs by CellTiter 96 Aqueous One Solution Cell Proliferation Assay. The test is classed as functional, cell-based. The conditions noted are these: SW480, 24 h.
Test [19] has as its system HCT-116. Put plainly: Antiproliferative activity against human HCT-116 cells assessed as inhibition of cell growth measured after 24 hrs by CellTiter 96 Aqueous One Solution Cell Proliferation Assay. The test is classed as functional, cell-based. Conditions: HCT-116, 24 h.
Test [20] deals with HCT-116. Nature of the test: Antiproliferative activity against human HCT-116 cells assessed as inhibition of cell viability measured after 24 hrs by CCK-8 method. The test is classed as functional, cell-based. Conditions: HCT-116, 24 h.
Test [21] relates to HT-29. Nature of the test: Antiproliferative activity against human HT-29 cells assessed as inhibition of cell viability measured after 24 hrs by CCK-8 method. It is filed as functional, cell-based. The conditions noted are these: HT-29, 24 h.
The subject of test [22] is SW480. Nature of the test: Antiproliferative activity against human SW480 cells. The test is classed as functional, cell-based.

With `C[C@@H]1CC[C@@]2(OC1)O[C@H]1C[C@H]3[C@@H]4CC=C5C[C@H](O[C@@H]6O[C@H](CO)[C@@H](O)[C@H](O[C@@H]7O[C@H](CO)[C@@H](O)[C@H](O)[C@H]7O)[C@H]6O[C@@H]6O[C@@H](C)[C@H](O)[C@@H](O)[C@H]6O)CC[C@]5(C)[C@H]4CC[C@]3(C)[C@H]1[C@@H]2C`, the IC50 was determined as 2.67 µM in the test on SW480 [1] (Homo sapiens, SW480, 48 h); 5.47 µM in the test on HCT-116 [2]; 3.12 µM in the test with RKO.

With `COC(=O)[C@H](C)NC(=O)N[C@]1(C)CC[C@]2(C)CC[C@]3(C)C4=CC=C5C(=CC(=O)C(O)=C5C)[C@]4(C)CC[C@@]3(C)[C@@H]2C1`, the half-inhibitory concentration (IC50) with HCT-116 [3] and in the test on SW-620 [4] was 0.28 µM each time.

The compound `COc1cc(C[C@@H](CO[C@@H]2O[C@H](CO)[C@@H](O)[C@H](O)[C@H]2O)[C@H](CO[C@@H]2O[C@H](CO)[C@@H](O)[C@H](O)[C@H]2O)Cc2ccc(O)c(OC)c2)ccc1O` had an IC50 in the test with HCT-116 [5] (Homo sapiens, HCT-116) of 24.5 µM.

As for `Cc1c(CO)c(CO)c2n1[C@H](c1ccccc1)SC2`, the IC50 in the test on HCT-116 [6] came to 0.97 µM.

On to `CO[C@H]1C(=O)[C@]2(C)[C@@H](OC)C[C@H]3OC[C@@]3(OC(C)=O)[C@H]2[C@H](OC(=O)c2ccccc2)[C@]2(O)C[C@H](OC(=O)[C@H](O)[C@@H](NC(=O)OC(C)(C)C)c3ccccc3)C(C)=C1C2(C)C` [CABAZITAXEL], for which the IC50 in the test on HCT-116 [7] turned out to be 0.029 µM; in the test on LoVo [8] it was 0.063 µM; in the test with HCT-8 it was 0.532 µM.

Regarding CETUXIMAB, the IC with DLD-1 and in the test with HCT-116 [9] was 100 µM throughout.

Consider `CC(CN1c2ccccc2Sc2ccccc21)N(C)C` (stereo unspecified) [PROMETHAZINE], for which the IC50 in the test with HT-29 [10] came out at 27.3 µM; in the test on SW480 [11], 33 µM.

In the case of IVERMECTIN, the concentration for half-maximal inhibition (IC50) in the test with SW480 [12] turned out to be 15.3 µM; in the test on SW 1116, 6.27 µM.

For `c1ccc(-c2ccc(-c3csc(N/N=C4\CCc5ccccc54)n3)cc2)cc1`, the values for the IC50 with HT-29 [13], in the test with KM12 and in the test on COLO 205 were 0.44 µM, 0.41 µM and 0.98 µM, respectively.

Regarding `O=C1/C(=C/c2ccccc2Br)CSC/C1=C\c1ccccc1Br`, the IC50 with LoVo [14] stood at 1 µM.

Turning to `CC(C)c1cccc(C(C)C)c1O` [PROPOFOL], in the test with SW480 [1] (time 48 hrs), the IC stood at 12.5 µM.

With `C/C=C1/CN(C)[C@H]2Cc3c([nH]c4ccccc34)[C@H](c3cc4[nH]c5c(c4cc3OC)CCN3C[C@@H]4C[C@H](CC)[C@H]3[C@@]5(C(=O)OC)C4)C[C@@H]1C2C(=O)OC` (stereo partly specified), the IC50 in the test with HCT-116 [15] came to 4.1 µM; in the test on CT26, 1.38 µM.

`COc1cc2c(=O)oc3c(OC)c(O)cc4c(=O)oc(c1OC)c2c34` registered an IC in the test on SW-620 [16] of 15 µM.

On to `COc1ccccc1[C@@H](NS(=O)(=O)c1ccc2[nH]c(=O)ccc2c1)C(=O)N(Cc1ccco1)Cc1cccs1`, for which the IC with HCT-116 [17] was 20 µM.

Take `C[C@@H]1CC[C@]2(C(=O)O)CC[C@]3(C)C(=CC[C@@H]4[C@@]5(C)CC[C@H](O[C@@H]6OC[C@H](O)[C@H](O)[C@H]6O)C(C)(C)[C@@H]5CC[C@]43C)[C@@H]2[C@]1(C)O`: the IC50 stood at 11.3 µM with SW480 [18] and 10.8 µM in the test with HCT-116 [19].

For `O=c1cc(-c2ccc(O)cc2)oc2cc(O)c([C@@H]3O[C@H](CO)[C@@H](O)[C@H](O)[C@H]3O)c(O)c12` [ISOVITEXIN], the IC50 worked out at 29.8 µM in the test with HCT-116 [20] and 37.2 µM in the test with HT-29 [21].

As to `O=C1C2C3C=CC(C4CC34)C2C(=O)N1c1ccc(Cc2ccncc2)cc1` (stereo unspecified), the IC in the test with SW480 [22] and with HCT-116 [5] was 10 µM each time.

Usually IC50 stands for the concentration that inhibits the measured activity by half.
